Active and inactive are the calls of the source. No cut-off for these calls is given here.
Key:
[1] = molecular target: T1, Protein cereblon/Cyclin-dependent kinase 9 (Homo sapiens) (UniProt P50750+Q96SW2); assay: Protac activity at CRBN/CDK9 in human MDA-MB-231 cells assessed as induction of degradation of CDK9 pretreated with thalidomide at 500 nM incubated for 8 hrs by Western blot analysis; format: cell-based
[2] = molecular target: T1, Protein cereblon/Cyclin-dependent kinase 9 (Homo sapiens); assay: Protac activity at CRBN/CDK9 in human MDA-MB-231 cells assessed as induction of degradation of CDK9 pretreated with MLN4924 at 500 nM incubated for 8 hrs by Western blot analysis; format: cell-based
[3] = system: MDA-MB-231; assay: Induction of apoptosis in human MDA-MB-231 cells assessed as apoptotic cells at 500 nM incubated for 48 hrs by Annexin V-FITC/PI analysis (reference value: 4.85%); format: functional
[4] = molecular target: Protein cereblon/Cyclin-dependent kinase 1 (Homo sapiens) (UniProt P06493+Q96SW2); assay: Protac activity at CRBN/CDK1 in human MDA-MB-231 cells assessed as induction of degradation of CDK1 at 0.01 to 2.5 uM incubated for 4 to 8 hrs by Western blot analysis; format: cell-based; details: dose 0.01-2.5 µM, time 4-8 hrs
[5] = system: MDA-MB-231; assay: Downregulation of CDK9 mRNA expression in human MDA-MB-231 cells at 0.5 uM incubated for 4 hrs by RNA-seq analysis; format: functional, cell-based
[6] = system: Tumour; assay: Induction of CDK9 degradation in tumor of human MDA-MB-231 cells xenografted in BALB/c mouse model at 0.15 mM intratumoral injection measured after 16 hrs by Western blot analysis relative to control; format: functional, Neoplasm
[7] = molecular target: Protein cereblon/Cyclin-dependent kinase 4 (Homo sapiens) (UniProt P11802+Q96SW2); assay: Protac activity at CRBN/CDK4 in human MDA-MB-231 cells assessed as induction of degradation of CDK4 at 0.01 to 2.5 uM incubated for 4 to 8 hrs by Western blot analysis; format: cell-based; details: dose 0.01-2.5 µM, time 4-8 hrs
[8] = system: MDA-MB-231; assay: Induction of apoptosis in human MDA-MB-231 cells assessed as apoptotic cells at 10 nM incubated for 48 hrs by Annexin V-FITC/PI analysis (reference value: 4.85%); format: functional
[9] = molecular target: T1, Protein cereblon/Cyclin-dependent kinase 9 (Homo sapiens); assay: Protac activity at CRBN/CDK9 in human MDA-MB-231 cells assessed as induction of degradation of CDK9 at 500 nM incubated for 8 hrs by Western blot analysis; format: cell-based
[10] = molecular target: T1, Protein cereblon/Cyclin-dependent kinase 9 (Homo sapiens); assay: Protac activity at CRBN/CDK9 in human MDA-MB-231 cells assessed as induction of degradation of CDK9 pretreated with compound 44 at 500 nM incubated for 8 hrs by Western blot analysis; format: cell-based
[11] = Downregulation of MCL1 gene expression in human MDA-MB-231 cells at 0.5 uM incubated for 4 hrs by quantitative RT-PCR based gene set enrichment analysis relative to control; format: functional
[12] = molecular target: Protein cereblon/Cyclin-dependent kinase 7 (Homo sapiens) (UniProt P50613+Q96SW2); assay: Protac activity at CRBN/CDK7 in human MDA-MB-231 cells assessed as induction of degradation of CDK7 at 0.01 to 2.5 uM incubated for 4 to 8 hrs by Western blot analysis; format: cell-based; details: dose 0.01-2.5 µM, time 4-8 hrs
[13] = molecular target: Protein cereblon/Eukaryotic peptide chain release factor GTP-binding subunit ERF3A (Homo sapiens) (UniProt Q96SW2+P15170); assay: Protac activity at CRBN/GSPT1 in human MDA-MB-231 cells assessed as induction of degradation of GSPT1 incubated for 4 to 8 hrs by Western blot analysis; format: cell-based; details: time 4-8 hrs
[14] = molecular target: Protein cereblon/Cyclin-dependent kinase 5 (Homo sapiens) (UniProt Q00535+Q96SW2); assay: Protac activity at CRBN/CDK5 in human MDA-MB-231 cells assessed as induction of degradation of CDK5 at 0.01 to 2.5 uM incubated for 4 to 8 hrs by Western blot analysis; format: cell-based; details: dose 0.01-2.5 µM, time 4-8 hrs
[15] = molecular target: T1, Protein cereblon/Cyclin-dependent kinase 9 (Homo sapiens); assay: Protac activity at CRBN/CDK9 in human MDA-MB-231 cells assessed as induction of degradation of CDK9 at 500 nM measured after 2 hrs by Western blot analysis; format: cell-based
[16] = molecular target: T1, Protein cereblon/Cyclin-dependent kinase 9 (Homo sapiens); assay: Protac activity at CRBN/CDK9 in human MDA-MB-231 cells assessed as induction of degradation of CDK9 pretreated with PR171 at 500 nM incubated for 8 hrs by Western blot analysis; format: cell-based
[17] = Downregulation of MYC gene expression in human MDA-MB-231 cells at 0.5 uM incubated for 4 hrs by quantitative RT-PCR based gene set enrichment analysis relative to control; format: functional
[18] = molecular target: T1, Protein cereblon/Cyclin-dependent kinase 9 (Homo sapiens); assay: Protac activity at CRBN/CDK9 in human MDA-MB-231 cells assessed as induction of degradation of CDK9 measured after 4 to 8 hrs by Western blot analysis; format: cell-based; details: dose 0.01-2.5 µM, time 4-8 hrs
[19] = Solubility of the compound; format: physicochemical
[20] = molecular target: Protein cereblon/Cyclin-dependent kinase 2 (Homo sapiens) (UniProt P24941+Q96SW2); assay: Protac activity at CRBN/CDK2 in human MDA-MB-231 cells assessed as induction of degradation of CDK2 at 0.01 to 2.5 uM incubated for 4 to 8 hrs by Western blot analysis; format: cell-based; details: dose 0.01-2.5 µM, time 4-8 hrs
[21] = system: Tumour; assay: Induction of CDK7 degradation in tumor of human MDA-MB-231 cells xenografted in BALB/c mouse model at 0.15 mM intratumoral injection measured after 16 hrs by Western blot analysis relative to control; format: functional, tissue-based; details: Neoplasm
[22] = system: BT-549; assay: Growth inhibition of human BT-549 cells assessed as cell viability measured after 4 days by WST8 assay; format: functional, cell-based; details: BT-549, 96 h
[23] = molecular target: Protein cereblon/Cyclin-dependent kinase 6 (Homo sapiens) (UniProt Q00534+Q96SW2); assay: Protac activity at CRBN/CDK6 in human MDA-MB-231 cells assessed as induction of degradation of CDK6 at 0.01 to 2.5 uM incubated for 4 to 8 hrs by Western blot analysis; format: cell-based; details: dose 0.01-2.5 µM, time 4-8 hrs
[24] = system: MDA-MB-468; assay: Growth inhibition of human MDA-MB-468 cells assessed as cell viability measured after 4 days by WST8 assay; format: functional, cell-based; details: MDA-MB-468, 96 h
[25] = system: MDA-MB-231; assay: Growth inhibition of human MDA-MB-231 cells assessed as cell viability measured after 4 days by WST8 assay; format: functional, cell-based; details: MDA-MB-231, 96 h
[26] = system: MDA-MB-231; assay: Induction of apoptosis in human MDA-MB-231 cells assessed as apoptotic cells at 100 nM incubated for 48 hrs by Annexin V-FITC/PI analysis (reference value: 4.85%); format: functional

T1 sequence (P50750 whole entry, looked up): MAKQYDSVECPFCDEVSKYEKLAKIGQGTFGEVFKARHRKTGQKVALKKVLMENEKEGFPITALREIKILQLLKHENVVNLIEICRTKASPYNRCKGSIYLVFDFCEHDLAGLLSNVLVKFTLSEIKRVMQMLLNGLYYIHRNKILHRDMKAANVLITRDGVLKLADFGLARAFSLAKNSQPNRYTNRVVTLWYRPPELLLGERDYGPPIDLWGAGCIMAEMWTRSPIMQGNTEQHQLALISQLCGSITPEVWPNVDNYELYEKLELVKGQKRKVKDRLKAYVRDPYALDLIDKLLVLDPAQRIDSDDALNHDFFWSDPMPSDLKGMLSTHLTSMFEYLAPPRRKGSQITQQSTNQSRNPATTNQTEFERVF
T1 sequence (Q96SW2 whole entry, looked up): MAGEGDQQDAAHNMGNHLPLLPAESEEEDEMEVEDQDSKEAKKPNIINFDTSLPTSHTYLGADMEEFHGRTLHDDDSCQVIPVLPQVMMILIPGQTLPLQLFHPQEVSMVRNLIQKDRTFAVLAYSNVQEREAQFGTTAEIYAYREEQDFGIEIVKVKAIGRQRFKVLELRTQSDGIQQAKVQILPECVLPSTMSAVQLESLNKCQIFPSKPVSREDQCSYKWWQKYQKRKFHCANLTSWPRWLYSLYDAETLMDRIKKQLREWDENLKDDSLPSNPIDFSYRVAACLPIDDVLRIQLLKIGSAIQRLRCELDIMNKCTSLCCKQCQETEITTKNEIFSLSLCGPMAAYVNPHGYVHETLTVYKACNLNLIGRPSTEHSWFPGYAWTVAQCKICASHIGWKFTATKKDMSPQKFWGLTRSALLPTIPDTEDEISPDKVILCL
Protein cereblon/Cyclin-dependent kinase 4 (Homo sapiens), sequence (P11802 2-303 limits assumed): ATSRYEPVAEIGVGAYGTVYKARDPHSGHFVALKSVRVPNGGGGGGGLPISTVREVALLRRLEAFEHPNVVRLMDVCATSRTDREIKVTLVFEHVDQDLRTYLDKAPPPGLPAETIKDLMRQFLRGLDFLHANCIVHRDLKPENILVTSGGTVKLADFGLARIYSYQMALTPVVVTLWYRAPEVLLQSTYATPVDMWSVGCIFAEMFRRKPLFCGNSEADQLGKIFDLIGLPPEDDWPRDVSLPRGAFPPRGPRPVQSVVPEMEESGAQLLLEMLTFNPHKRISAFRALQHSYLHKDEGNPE
Protein cereblon/Cyclin-dependent kinase 4 (Homo sapiens), sequence (Q96SW2 whole entry partner): as the sequence (Q96SW2 whole entry, looked up) above
Protein cereblon/Cyclin-dependent kinase 7 (Homo sapiens), sequence (P50613 whole entry, looked up): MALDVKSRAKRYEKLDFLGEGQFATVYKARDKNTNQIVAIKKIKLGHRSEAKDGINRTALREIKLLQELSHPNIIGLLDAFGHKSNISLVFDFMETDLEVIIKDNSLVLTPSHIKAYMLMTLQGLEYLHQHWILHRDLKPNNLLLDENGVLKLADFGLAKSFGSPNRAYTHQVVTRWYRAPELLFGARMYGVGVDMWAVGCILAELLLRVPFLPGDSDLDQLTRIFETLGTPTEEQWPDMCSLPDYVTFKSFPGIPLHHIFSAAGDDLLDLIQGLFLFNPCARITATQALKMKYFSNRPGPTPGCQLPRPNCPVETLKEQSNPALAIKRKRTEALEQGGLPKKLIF
Protein cereblon/Cyclin-dependent kinase 7 (Homo sapiens), sequence (Q96SW2 whole entry, looked up): as the sequence (Q96SW2 whole entry, looked up) above
Protein cereblon/Cyclin-dependent kinase 5 (Homo sapiens), sequence (Q00535 whole entry, looked up): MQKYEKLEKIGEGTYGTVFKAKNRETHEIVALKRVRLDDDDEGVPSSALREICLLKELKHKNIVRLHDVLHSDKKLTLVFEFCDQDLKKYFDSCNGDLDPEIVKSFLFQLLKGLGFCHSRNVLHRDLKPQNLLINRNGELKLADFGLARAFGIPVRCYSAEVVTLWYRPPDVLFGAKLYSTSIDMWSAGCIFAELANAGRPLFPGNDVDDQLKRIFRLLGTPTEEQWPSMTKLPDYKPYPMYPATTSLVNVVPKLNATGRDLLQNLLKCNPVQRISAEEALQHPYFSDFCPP
Protein cereblon/Cyclin-dependent kinase 5 (Homo sapiens), sequence (Q96SW2 whole entry, looked up): as the sequence (Q96SW2 whole entry, looked up) above
Protein cereblon/Cyclin-dependent kinase 6 (Homo sapiens), sequence (Q00534 whole entry, looked up): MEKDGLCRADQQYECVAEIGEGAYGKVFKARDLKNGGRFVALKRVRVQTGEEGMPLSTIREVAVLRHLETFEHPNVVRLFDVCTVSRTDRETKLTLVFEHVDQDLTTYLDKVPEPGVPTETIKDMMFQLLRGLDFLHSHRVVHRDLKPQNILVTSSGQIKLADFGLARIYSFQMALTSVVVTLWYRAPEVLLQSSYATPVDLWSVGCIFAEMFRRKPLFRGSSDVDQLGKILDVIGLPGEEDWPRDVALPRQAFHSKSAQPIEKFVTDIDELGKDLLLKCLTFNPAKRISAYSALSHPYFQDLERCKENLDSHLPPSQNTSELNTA
Protein cereblon/Cyclin-dependent kinase 6 (Homo sapiens), sequence (Q96SW2 whole entry, looked up): as the sequence (Q96SW2 whole entry, looked up) above
Protein cereblon/Eukaryotic peptide chain release factor GTP-binding subunit ERF3A (Homo sapiens), sequence (P15170 whole entry, looked up): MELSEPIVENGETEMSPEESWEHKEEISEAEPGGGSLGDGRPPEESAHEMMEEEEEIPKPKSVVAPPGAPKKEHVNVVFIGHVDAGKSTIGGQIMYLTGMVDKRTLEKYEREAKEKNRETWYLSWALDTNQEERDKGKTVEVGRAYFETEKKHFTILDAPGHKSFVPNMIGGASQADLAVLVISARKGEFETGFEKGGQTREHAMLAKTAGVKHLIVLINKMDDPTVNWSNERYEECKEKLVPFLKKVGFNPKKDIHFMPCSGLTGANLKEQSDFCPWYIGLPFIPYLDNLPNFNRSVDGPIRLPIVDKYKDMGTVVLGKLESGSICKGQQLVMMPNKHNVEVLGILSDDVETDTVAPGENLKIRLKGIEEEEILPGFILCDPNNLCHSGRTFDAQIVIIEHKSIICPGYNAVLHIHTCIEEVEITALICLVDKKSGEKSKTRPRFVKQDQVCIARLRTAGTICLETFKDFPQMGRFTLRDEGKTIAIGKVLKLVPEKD
Protein cereblon/Eukaryotic peptide chain release factor GTP-binding subunit ERF3A (Homo sapiens), sequence (Q96SW2 whole entry, looked up): as the sequence (Q96SW2 whole entry, looked up) above
Protein cereblon/Cyclin-dependent kinase 1 (Homo sapiens), sequence (P06493 whole entry, looked up): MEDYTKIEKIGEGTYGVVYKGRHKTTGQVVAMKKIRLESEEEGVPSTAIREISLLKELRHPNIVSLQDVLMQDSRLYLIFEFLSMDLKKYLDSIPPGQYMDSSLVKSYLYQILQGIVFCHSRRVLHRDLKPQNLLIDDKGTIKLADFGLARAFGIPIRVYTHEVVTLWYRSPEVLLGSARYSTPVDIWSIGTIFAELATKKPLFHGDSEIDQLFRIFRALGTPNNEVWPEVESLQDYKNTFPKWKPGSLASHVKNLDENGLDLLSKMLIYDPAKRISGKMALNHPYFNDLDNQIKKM
Protein cereblon/Cyclin-dependent kinase 1 (Homo sapiens), sequence (Q96SW2 whole entry, looked up): as the sequence (Q96SW2 whole entry, looked up) above

In the case of CC(C)c1cnn2c(NCc3ccc(NC(=O)CCCCCCCOc4cccc5c4C(=O)N(C4CCC(=O)NC4=O)C5=O)cc3)nc(OC3CCN(C)CC3)nc12 (stereo unspecified), the Activity [1] is reported as “inactive”, the Activity [2] is reported as “inactive” and the Activity [3] is reported as 26.49%. The Activity [4] was “inactive”, the Activity [5] was “inactive” and the Activity [6] was 26%. The Activity [7] was “inactive”, the Activity [8] was 6.39% and the Activity [9] was “Active”. For the same compound, the Activity [10] was “inactive”, the inhibition at 0.5 µM [11] was 59.6% and the Activity [12] was “inactive”. For the same compound, the Activity [13] was “inactive”, the Activity [14] was “inactive” and the Activity [15] was 100%. For the same compound, the Activity [16] was “inactive”, the inhibition at 0.5 µM [17] was 75.3% and the Activity [18] was “Dose-Dependent Effect”. The solubility [19] was “Insoluble”, the Activity [20] was “inactive” and the Activity [21] was “inactive”. The IC50 [22] was 48 nM, the Activity [23] was “inactive” and the IC50 [24] was 66 nM. The IC50 [25] was 51 nM and the Activity [26] was 10.48%.
